In patent US7183268B2, “2-amino-9-[(2-hydroxymethyl) cyclopropylidenemethyl] purine antiviral agents” (Wayne State University, priority 2002, dated 2007) one finds IC50 data, which are given here for 17 compounds.

For one test, the system named is Growing KB cells. In words: Cytotoxicity in growing KB cells (crystal violet staining). In kind it is cell-based. How it is done:
(§1) Cells and viruses. The routine growth and passage of KB cells was performed in monolayer cultures using minimal essential medium (MEM) with either Hanks salts [MEM(H)] or Earle salts [MEM(E)] supplemented with 10% calf serum. The sodium bicarbonate concentration was varied to meet the buffering capacity required. Cultures of diploid human foreskin fibroblasts (HFF) or MRC-5 cells were grown in medium consisting of MEM(E) with 10% fetal bovine serum. Cells were passaged at 1:2 to 1:10 dilutions according to conventional procedures by using 0.05% trypsin plus 0.02% EDTA in a HEPES buffered salt solution (HBS) (Shipman, C., Jr., Proc. Soc. Exp. Biol. 130:305–310 (1969)) as described previously. (Turk, S. R., et al., Antimicrob. Agents Chemother. 31:544–550 (1987). HFF and MRC-5 cells were passaged only at 1:2 dilutions.
(§2) Cytotoxicity assays. Two different assays were used to explore cytotoxicity of selected compounds as we have detailed previously. (i) Cytotoxicity produced in stationary HFF cells was determined by microscopic inspection of cells used in plaque assays which were not affected by the virus. (ii) The effect of compounds during two population doublings of KB cells was determined by crystal violet staining and spectrophotometric quantitation of dye eluted from stained cells. (Turk, S. R., et al., Antimicrob. Agents Chemother. 35:1060–1065 (1991).
(§3) Data Analysis. Dose-response relationships were constructed by linearly regressing the percent inhibition of parameters derived in the preceding sections against log drug concentrations. Fifty-percent inhibitory (IC50) concentrations were calculated from the regression lines. Samples containing positive controls (acyclovir for HSV-1, ganciclovir for HCMV, and 2-acetylpyridine thiosemicarbazone for cytotoxicity) were used in all assays. Results from sets of assays were rejected if inhibition by the positive control deviated from its mean response by >±1.5 standard deviations.

In the next test the test system is HSV-1. As to the kind of experiment: HSV-1 ELISA in BSC-1 cells. In kind it is cell-based. How it is done:
as §1
(§4) Virological procedures. Stock HCMV was prepared by infecting HFF cells at a multiplicity of infection (m.o.i.) of <0.01 plaque-forming units (p.f.u.) per cell. Cell growth medium was changed every four days until cytopathology was evident in all cells (approximately 21 days). Supernatant fluids were retained as the virus stock. High titer HSV-1 stocks were prepared by infecting KB cells at an m.o.i. of <0.1 as detailed previously. (Turk, S. R., et al., Antimicrob. Agents Chemother. 31:544–550 (1987). Virus titers were determined using monolayer cultures of HFF cells for HCMV and monolayer cultures of BSC-1 cells for HSV-1 as described earlier. (Prichard, M. N. et al., J. Virol. Methods 28:101–106 (1990). Briefly, HFF or BSC-1 cells were planted as described above in 96-well cluster dishes and incubated overnight at 37° C. in a humidified 3% CO2–97% air atmosphere. The next day cultures were inoculated with HCMV or HSV-1 and serially diluted 1:3 across the remaining eleven columns of the 96-well plate. Cultures were incubated at 37° C. for 2 hr to permit virus adsorption and then virus inoculum was replaced with 0.2 mL of fresh medium. Cultures were incubated for seven days for HCMV, two or three days for HSV-1, medium was removed, and the cell sheets were stained with 0.1% crystal violet in 20% methanol. Plaques were enumerated under 20-fold magnification in wells having the dilution which gave 5 to 20 plaques per well. Virus titers were calculated according to the following formula: Titer (p.f.u./mL)=number of plaques×5×3^n; where n represents the nth dilution of the virus used to infect the well in which plaques were enumerated.
Assays for Antiviral Activity. (b) HSV-1. An enzyme-linked immunosorbent assay (ELISA) was employed to detect HSV-1. 96-well cluster dishes were planted with BSC-1 cells at 10,000 cells per well, in a total volume of 200 μL per well of MEM(E) plus 10% calf serum. After overnight incubation at 37° C., drug and HSV-1 was added at the rate of 100 PFU/well. ELISA plates were blocked with 200 μL per well of 10% calf serum and 0.05% tween in HBS. After incubation for 30 minutes, the blocking agent was rinsed two times with HBS-T. A 1:400 dilution of AP conjugated rabbit anti-HSV-1 antibody in HBS-F was added. Plates were sealed with adhesive sheet, and incubated on rocker for one hour at 37° C. Plates were developed in the dark with 100 μL per well of substrate solution containing p-nitrophenyl phosphate. Plates were read at 492 nm. Drug effects were calculated as a percentage of the reduction in virus in the presence of each drug concentration compared to the titer obtained in the absence of drug. Acyclovir was used as a positive control in all experiments.
Data Analysis. Dose-response relationships were constructed by linearly regressing the percent inhibition of parameters derived in the preceding sections against log drug concentrations. Fifty-percent inhibitory (IC50) concentrations were calculated from the regression lines. Samples containing positive controls (acyclovir for HSV-1, ganciclovir for HCMV, and 2-acetylpyridine thiosemicarbazone for cytotoxicity) were used in all assays. […]
Background: ELISA stands for enzyme-linked immunosorbent assay.

The test system of another test is HCMV. As to the kind of experiment: HCMV plaque reduction assay in HFF cells. The test is classed as cell-based. How it is done: as §1, §4
Assays for Antiviral Activity. (a) HCMV. The effect of compounds on the replication of HCMV has been measured using a plaque reduction assay. HFF cells in 24-well cluster dishes were infected with approximately 100 p.f.u. of HCMV per cm^2 cell sheet using the procedures detailed above. Following virus adsorption, compounds dissolved in growth medium were added to duplicate wells in three to six selected concentrations. Following incubation at 37° C. for 7 to 10 days, cell sheets were fixed, stained with crystal violet and microscopic plaques enumerated as described above. Drug effects were calculated as a percentage of reduction in number of plaques in the presence of each drug concentration compared to the number observed in the absence of drug. Ganciclovir (GCV) was used as a positive control in all experiments.
as §3
In general terms: In a plaque reduction assay, fewer plaques than in the control indicate reduced infectivity or spread.

The test system of a further test is Stationary HFF cells. In words: Cytotoxicity in stationary HFF cells (microscopic inspection). In kind it is cell-based, human. How it is done: as §1, §2, §3

Molecules are shown by their SMILES. Like-named read-outs stand apart in the source and are kept apart here.

With `Nc1nc2c(ncn2COCCO)c(=O)[nH]1` [Acyclovir, reference compound], the IC50 (as a rule, the concentration that inhibits the measured activity by half) in the test with Growing KB cells (Homo sapiens) is more than 100 µM; in the test on HSV-1 (Human alphaherpesvirus 1) it was 0.15 µM.

With `C=CCNc1nc(N)nc2c1ncn2/C=C1/C[C@@H]1CO` [Compound 6, (Z,S)-(+)-2-Amino-6-allylamino-9-[(2-hydroxymethyl)cyclopropylidenemethyl]purine], the IC50 in the test with Growing KB cells is more than 100 µM; in the test on HCMV (HFF host cells), 1.8 µM; in the test on Stationary HFF cells, more than 100 µM; with HSV-1 it was 4 µM.

Consider `C#CCNc1nc(N)nc2c1ncn2/C=C1/C[C@@H]1CO` [Compound 7, (Z,S)-(+)-2-Amino-6-propargylamino-9-[(2-hydroxymethyl)-cyclopropylidenemethyl]purine], for which the 50% inhibitory concentration (IC50) is more than 100 µM in the test with Growing KB cells, 3.5 µM with HCMV (HFF host cells), more than 100 µM in the test on Stationary HFF cells and 6 µM in the test on HSV-1.

Take `Nc1nc(NCC2CC2)c2ncn(/C=C3/C[C@@H]3CO)c2n1` [Compound 8, (Z,S)-(+)-2-Amino-6-cyclopropylmethylamino-9-[(2-hydroxymethyl)cyclopropylidenemethyl]purine]: the IC50 in the test on Growing KB cells is more than 100 µM; in the test with HCMV (HFF host cells), 3.8 µM; in the test with Stationary HFF cells, more than 100 µM; in the test with HSV-1, 2.5 µM.

With `CC(C)Nc1nc(N)nc2c1ncn2/C=C1/C[C@@H]1CO` [Compound 9, (Z,S)-(+)-2-Amino-6-isopropylamino-9-[(2-hydroxymethyl)-cyclopropylidenemethyl]purine], the IC50 in the test on Growing KB cells is more than 100 µM; with HCMV (HFF host cells) it was 3.8 µM; in the test on Stationary HFF cells, more than 100 µM; in the test on HSV-1 it was 15 µM.

As for `Nc1nc(NCc2ccccc2)c2ncn(/C=C3/C[C@@H]3CO)c2n1` [Compound 10, (Z,S)-(+)-2-Amino-6-benzylamino-9-[(2-hydroxymethyl)cyclopropylidenemethyl]purine], the IC50 with Growing KB cells is more than 100 µM; with HCMV (HFF host cells), more than 100 µM; with Stationary HFF cells, more than 100 µM; in the test on HSV-1 it was 25 µM.

For `Nc1nc(NC2CCCCC2)c2ncn(/C=C3/C[C@@H]3CO)c2n1` [Compound 11, (Z,S)-(+)-2-Amino-6-cyclohexylamino-9-[(2-hydroxymethyl)-cyclopropylidenemethyl]purine], the IC50 in the test on Growing KB cells is more than 100 µM; in the test on HCMV (HFF host cells), more than 100 µM; with Stationary HFF cells, more than 100 µM; with HSV-1 it was 15 µM.

For the compound `Nc1nc(NCCO)c2ncn(/C=C3/C[C@@H]3CO)c2n1` [Compound 12, (Z,S)-(+)-2-Amino-6-(2-hydroxy)ethylamino-9-[(2-hydroxymethyl)cyclopropylidenemethyl]purine], the IC50 in the test on Growing KB cells was more than 100 µM; in the test on HCMV (HFF host cells) it was 39 µM; in the test with Stationary HFF cells, more than 100 µM; in the test with HSV-1 it was more than 100 µM.

As for `CCCOc1nc(N)nc2c1ncn2/C=C1/C[C@@H]1CO` [Compound 13a, (Z,S)-(+)-2-Amino-6-propoxy-9-[(2-hydroxymethyl)cyclopropylidenemethyl]purine], the IC50 with Growing KB cells is more than 100 µM; in the test with HCMV (HFF host cells), 0.26 µM; with Stationary HFF cells, more than 100 µM; in the test with HSV-1, 1 µM.

Consider `CCCCCOc1nc(N)nc2c1ncn2/C=C1/C[C@@H]1CO` [Compound 13b, (Z,S)-(+)-2-Amino-6-pentyloxy-9-[(2-hydroxymethyl)cyclopropylidenemethyl]purine], for which the IC50 was more than 100 µM in the test on Growing KB cells, 0.21 µM with HCMV (HFF host cells), more than 100 µM in the test with Stationary HFF cells and 7 µM in the test on HSV-1.

Turning to `C=CCOc1nc(N)nc2c1ncn2/C=C1/C[C@@H]1CO` [Compound 14, (Z,S)-(+)-2-Amino-6-allyloxy-9-[(2-hydroxymethyl)cyclopropylidenemethyl]purine], the IC50 was more than 100 µM in the test on Growing KB cells, 0.33 µM in the test on HCMV (HFF host cells), more than 100 µM in the test on Stationary HFF cells and 1.5 µM with HSV-1.

Regarding `Nc1nc(OCC2CC2)c2ncn(/C=C3/C[C@@H]3CO)c2n1` [Compound 15, (Z,S)-(+)-2-Amino-6-cyclopropylmethoxy-9-[(2-hydroxymethyl)cyclopropylidenemethyl]purine], the IC50 in the test on Growing KB cells is more than 100 µM; in the test with HCMV (HFF host cells), 0.32 µM; in the test on Stationary HFF cells it was more than 100 µM; in the test with HSV-1, 7 µM.

Consider `CCCSc1nc(N)nc2c1ncn2/C=C1/C[C@@H]1CO` [Compound 16a, (Z,S)-(+)-2-Amino-6-propylthio-9-[(2-hydroxymethyl)cyclopropylidenemethyl]purine], for which the IC50 with Growing KB cells was more than 100 µM; in the test with HCMV (HFF host cells), 0.22 µM; in the test with Stationary HFF cells, more than 100 µM; in the test with HSV-1 it was 1 µM.

On to `CCCCCSc1nc(N)nc2c1ncn2/C=C1/C[C@@H]1CO` [Compound 16b, (Z,S)-(+)-2-Amino-6-pentylthio-9-[(2-hydroxymethyl)cyclopropylidenemethyl]purine], for which the IC50 in the test with Growing KB cells is more than 100 µM; with HCMV (HFF host cells), 0.32 µM; with Stationary HFF cells it was more than 100 µM; with HSV-1, 7 µM.

As for `Nc1nc(S)c2ncn(/C=C3/C[C@@H]3CO)c2n1` [Compound 17, (Z,S)-(+)-2-Amino-6-thio-9-[(2-hydroxymethyl)cyclopropylidenemethyl]purine], the concentration for half-maximal inhibition (IC50) with Growing KB cells is more than 100 µM; in the test with HCMV (HFF host cells), 37 µM; with Stationary HFF cells, more than 100 µM; with HSV-1, more than 100 µM.

Take `Nc1ncc2ncn(/C=C3/C[C@@H]3CO)c2n1` [Compound 18, (Z,S)-(+)-2-Amino-9-[(2-hydroxymethyl)cyclopropylidenemethyl]purine]: the IC50 in the test on Growing KB cells was more than 100 µM; in the test on HCMV (HFF host cells), more than 100 µM; in the test on Stationary HFF cells, more than 100 µM; with HSV-1, 35 µM.

As to `Nc1nc(O)c2ncn(COC(CO)CO)c2n1` [Ganciclovir, reference compound], the IC50 was 4.1 µM in the test on HCMV (Human betaherpesvirus 5, HFF host cells) and more than 100 µM in the test with Stationary HFF cells (Homo sapiens).
